Results published in US10722480B2, “Agent for controlling cells constituting cancer microenvironment or inflammatory microenvironment” (The University of Tokyo, priority 2015, dated 2020).

How the values were obtained:
p53-MDM2 interaction = p53-MDM2 interaction (Homo sapiens, UniProt Q00987); assay: HTRF binding inhibition assay, p53-MDM2 control interaction
Excerpt: By the same HTRF assay as described above, the abilities of disulfiram to inhibit the FROUNT-CCR2 interaction or the FROUNT-CCR5 interaction were investigated. As the CCR5 pro-C peptide, the 16 residues […] (SEQ ID NO:4) in the C-terminal region of CCR5 was used. As a control, the p53-MDM2 interaction (which is inhibited by an MDM-2-specific inhibitor Nutlin), which is also a helix peptide-protein interaction like the interaction between FROUNT and CCR2 or CCR5 but is not related thereto, was used.

[1] = system: LLC (Lewis lung cancer) cells; assay: Subcutaneous tumor growth model (LLC); assay type: in vivo, mouse; conditions: 0.8 mg/g in feed, oral, Day 4 to Day 11, vs control group
Protocol: For evaluation of the subcutaneous tumor growth, LLC (Lewis lung cancer) cells (5×10^5) were suspended in 50 μL of PBS, and subcutaneously administered to the right abdomen of each mouse. The tumor size was measured using a caliper twice a week. The tumor volume was calculated according to the following equation. Tumor volume=(tumor shorter diameter)^2×tumor longer diameter/2 In order to investigate the antitumor effect in the subcutaneous tumor growth model, disulfiram was added in an amount of 0.8 mg/g to CE-2 powder feed (CLEA Japan, Inc.) supplemented with 5% sucrose (Wako), and the mice were fed therewith every day during the period from Day 4 to Day 11 post tumor inoculation. The control group was fed with a feed supplemented with the same amount of sucrose.

B16F10 melanoma cells = assay: Lung metastasis model (B16F10); assay type: in vivo, mouse; conditions: B16F10 via tail vein, Day 9 post tumor administration
Protocol: To provide a lung metastasis model, 1×10^6 B16F10 melanoma cells were suspended in 200 μL of PBS, and administered from the tail vein of each of wild-type C57BL/6 mice. Administration of the inhibitor was carried out one day before, 30 minutes before, and one day after the tumor administration. To provide a control, DMSO and a pyrimidine fluoride anticancer drug 5-FU were administered. The mice were euthanized on Day 9 post tumor administration, and PBS was perfused from the left ventricle, followed by isolation of lungs. Visible lung metastatic lesions in the left lobe were counted.

LLC tumor cells = assay: LDH cytotoxicity assay, LLC tumor cells; assay type: cell-based; conditions: LDH release, 72 hours
Protocol: The cytotoxicity of inhibitors was tested by using LDH Cytotoxicity Detection Kit (TaKaRa) according to the manufacturer's instructions. Briefly, tumor cells were cultured in the presence or absence of an agent (disulfiram or 5FU) for 72 hours, and the culture supernatant was then collected and tested for the concentration of lactate dehydrogenase released from damaged cells. For measurement of cell proliferation, cells were incubated in a plate well together with an inhibitor for 48 hours. During the last 30 minutes, WST-1 (Dojindo Laboratories) was added to the culture liquid, and the absorbance of each well was measured at 450 nm versus 650 nm reference using EnVision (PerkinElmer) to detect the formazan level.

[2] = system: macrophages in tumor sites; assay: Macrophage accumulation in tumor sites (lung metastasis model); assay type: in vivo, mouse; conditions: wild-type mice, vs solvent
Protocol: Lung cells of the lung metastasis model of wild-type mice described in the section 4 above or lung cells of the lung metastasis model of FNT-cKO mice and FNT^flox/flox mice described in the section 7(2) above were obtained from the right lower lobe by digestion with collagenase and DNase. The cells were washed with PBS supplemented with 2% fetal bovine serum, resuspended, and filtered through a 70-μm strainer. The Fc receptor was blocked by incubation with an anti-mouse CD16/32 antibody (BD biosciences), and thereafter the cells were stained with a fluorescently labeled antibody. Anti-mouse CD11b-Brilliant Violet 510, anti-mouse Ly6C-APC-Cy7, and anti-mouse Ly6G-Alexa Fluor 700 were purchased from Biolegend. The stained cells were analyzed using the Gallios flow cytometer (Beckman coulter). Each mouse was perfused with PBS, and the left lung was isolated. Optimal Cutting Temperature Compound (OCT) (Sakura Finetek) was injected from the trachea to embed the lung in OCT, and the lung was then frozen in liquid nitrogen. Fresh frozen sections with a thickness of 8 μm were prepared, and fixed with 4% paraformaldehyde-PBS. […] Fluorescence Images were obtained with an SP5 confocal microscope (Leica Microsystems).

B16 melanoma cells = assay: Combined use with anti-PD-1 antibody, B16 tumor-bearing model; assay type: in vivo, mouse; conditions: DSF in feed from Day 4, anti-PD-1 antibody 0.2 mg i.p. x4
Protocol: To provide an example of combined use of an anticancer drug and disulfiram (DSF), the effect of combined use of an anti-PD-1 antibody, which is an anticancer drug targeting an immune checkpoint molecule, and DSF was studied using an LLC tumor-bearing model and a B16 tumor-bearing model. The B16 tumor-bearing model was prepared by transplanting 5×10^5 B16 melanoma cells to the right abdomen of each of wild-type C57BL/6 mice. Preparation of the LLC tumor-bearing model was carried out in the same manner as in the above-described section 3. A feed supplemented with DSF was provided in the same manner as in the above-described section 3.
The day of the transplantation of the tumor cells to the mice was defined as Day 0. From Day 4, the mice were fed with the feed supplemented with DSF or a control feed every day during the experimental period. An anti-PD-1 antibody (J43, manufactured by BioXcell) was intraperitoneally administered once at a dose of 0.2 mg on each of Day 5, Day 8, Day 14, and Day 18 (four times in total). To provide a control for the antibody administration, PBS was intraperitoneally administered. The tumor size was measured using a caliper twice a week, and the tumor volume was calculated.

Sequence of p53-MDM2 interaction (Q00987 whole entry): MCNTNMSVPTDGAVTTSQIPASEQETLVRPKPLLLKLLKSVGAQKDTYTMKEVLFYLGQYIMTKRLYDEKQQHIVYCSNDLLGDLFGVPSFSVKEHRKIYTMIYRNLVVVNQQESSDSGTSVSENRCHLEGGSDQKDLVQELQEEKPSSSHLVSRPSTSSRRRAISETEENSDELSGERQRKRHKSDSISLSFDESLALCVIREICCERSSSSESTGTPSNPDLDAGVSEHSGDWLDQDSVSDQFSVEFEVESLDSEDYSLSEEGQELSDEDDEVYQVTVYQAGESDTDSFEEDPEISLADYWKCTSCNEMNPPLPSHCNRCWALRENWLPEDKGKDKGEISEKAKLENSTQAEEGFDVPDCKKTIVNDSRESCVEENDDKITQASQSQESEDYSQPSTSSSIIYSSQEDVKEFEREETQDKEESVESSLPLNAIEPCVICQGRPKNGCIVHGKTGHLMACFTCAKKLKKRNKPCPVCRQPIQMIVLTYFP

- IC50 (p53-MDM2 interaction; p53-MDM2 control interaction): > 1 µM
- inhibition of p53-MDM2 interaction (p53-MDM2 interaction; result in words): did not inhibit
Structure (SMILES): CCN(CC)C(=S)SSC(=S)N(CC)CC [DSF, disulfiram]
- tumor volume [1]: significantly smaller
- formation of lung metastatic lesions (B16F10 melanoma cells; listed as Disulfiram): significantly reduced
- formation of lung metastatic lesions (B16F10 melanoma cells; listed as disulfiram): effectively reduced
- cytotoxic activity on LLC tumor cells (LLC tumor cells): did not show cytotoxic activity
- accumulation of macrophages in tumor sites [2]: reduced
- inhibitory effect on cancer hyperplasia (tumor volume) (B16 melanoma cells): not observed at a significant level
